Measured values reported in article PMC2824011 (Analytical biochemistry, 2009).

How the values were obtained:
[1] = target: T1, human lysosomal mannosidase (HLM) (Homo sapiens, UniProt O00754); test: continuous fluorometric turnover assay of purified enzyme, pH […]; assay type: biochemical
T1 sequence (O00754 50-1011): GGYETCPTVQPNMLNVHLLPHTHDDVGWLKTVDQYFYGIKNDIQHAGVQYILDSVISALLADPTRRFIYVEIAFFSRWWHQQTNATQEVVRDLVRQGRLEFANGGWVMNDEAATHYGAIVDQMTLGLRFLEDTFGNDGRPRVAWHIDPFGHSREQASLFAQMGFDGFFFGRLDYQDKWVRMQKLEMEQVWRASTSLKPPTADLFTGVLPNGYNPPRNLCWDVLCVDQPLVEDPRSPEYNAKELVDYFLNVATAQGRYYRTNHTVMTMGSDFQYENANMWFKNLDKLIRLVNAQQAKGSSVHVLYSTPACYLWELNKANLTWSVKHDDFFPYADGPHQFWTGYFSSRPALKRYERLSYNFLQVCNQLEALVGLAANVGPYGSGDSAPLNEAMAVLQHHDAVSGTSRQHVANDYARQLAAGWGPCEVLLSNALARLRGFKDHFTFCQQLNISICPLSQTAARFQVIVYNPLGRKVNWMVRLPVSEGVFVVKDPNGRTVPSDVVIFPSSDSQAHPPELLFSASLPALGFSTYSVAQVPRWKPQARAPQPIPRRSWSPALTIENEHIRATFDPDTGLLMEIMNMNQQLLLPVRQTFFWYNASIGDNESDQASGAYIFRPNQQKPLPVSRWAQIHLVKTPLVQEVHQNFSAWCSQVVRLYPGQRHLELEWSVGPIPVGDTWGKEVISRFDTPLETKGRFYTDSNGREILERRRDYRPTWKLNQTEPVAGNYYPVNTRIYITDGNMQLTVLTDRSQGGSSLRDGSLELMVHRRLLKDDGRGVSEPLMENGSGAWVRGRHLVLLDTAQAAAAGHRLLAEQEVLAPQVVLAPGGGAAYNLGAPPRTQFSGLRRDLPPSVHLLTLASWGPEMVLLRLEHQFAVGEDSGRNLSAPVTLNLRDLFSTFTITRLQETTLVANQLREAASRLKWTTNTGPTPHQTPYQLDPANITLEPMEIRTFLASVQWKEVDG

[2] = target: T2, Golgi α-mannosidase II (dGMII) (Drosophila melanogaster, UniProt Q24451); test: continuous fluorometric enzyme assay with Res-Man substrate, pH […]; assay type: biochemical
T2 sequence (Q24451 76-1108): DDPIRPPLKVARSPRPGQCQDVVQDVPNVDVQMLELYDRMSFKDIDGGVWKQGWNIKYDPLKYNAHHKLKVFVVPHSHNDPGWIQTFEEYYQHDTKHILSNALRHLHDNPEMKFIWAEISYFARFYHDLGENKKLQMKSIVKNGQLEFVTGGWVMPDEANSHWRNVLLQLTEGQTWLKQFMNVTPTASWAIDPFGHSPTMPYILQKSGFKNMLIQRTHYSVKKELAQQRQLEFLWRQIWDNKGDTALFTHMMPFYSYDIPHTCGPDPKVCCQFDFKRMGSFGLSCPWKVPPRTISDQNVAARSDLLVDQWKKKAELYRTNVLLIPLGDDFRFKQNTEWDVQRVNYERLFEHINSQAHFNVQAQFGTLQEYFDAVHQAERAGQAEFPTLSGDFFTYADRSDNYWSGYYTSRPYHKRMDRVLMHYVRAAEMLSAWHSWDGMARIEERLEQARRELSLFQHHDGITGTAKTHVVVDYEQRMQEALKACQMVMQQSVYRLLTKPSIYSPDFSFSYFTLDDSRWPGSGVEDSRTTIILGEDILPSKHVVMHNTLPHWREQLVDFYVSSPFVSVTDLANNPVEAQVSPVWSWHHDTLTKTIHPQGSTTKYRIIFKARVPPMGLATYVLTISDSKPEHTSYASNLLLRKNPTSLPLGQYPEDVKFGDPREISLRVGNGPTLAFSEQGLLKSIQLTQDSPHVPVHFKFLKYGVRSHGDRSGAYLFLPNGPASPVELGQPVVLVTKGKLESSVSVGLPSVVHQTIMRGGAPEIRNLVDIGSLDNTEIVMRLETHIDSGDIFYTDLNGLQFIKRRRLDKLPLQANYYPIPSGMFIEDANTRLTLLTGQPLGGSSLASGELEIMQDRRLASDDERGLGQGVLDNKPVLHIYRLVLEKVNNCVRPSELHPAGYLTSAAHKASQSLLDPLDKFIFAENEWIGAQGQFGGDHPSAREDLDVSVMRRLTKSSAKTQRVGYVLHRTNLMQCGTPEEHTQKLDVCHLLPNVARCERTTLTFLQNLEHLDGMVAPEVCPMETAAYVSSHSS

O=c1ccc2nc3ccc(O[C@H]4O[C@H](CO)[C@@H](O)[C@H](O)[C@@H]4O)cc3oc-2c1 [Res-Man, resorufin α-D-mannopyranoside] was tested, and the “continuous fluorometric turnover assay of purified enzyme, pH 6.0” value [1] was “recombinant human lysosomal mannosidase (HLM) (◊) using the substrate resorufin-α-D-mannopyranoside (Res-Man)”.

For O[C@H]1[C@H]2[C@H](O)CCCN2C[C@H]1O [swainsonine], the Ki [2] was 44.7 nM.
